Results: patent US20030157715A1, “Modulation of chromosome function by chromatin remodeling agents” (priority 2000, published 2003)

Columns and labels:
[1] = system: GAGAA repeats (satellite V / bw^D repeats); assay: DNase I footprinting on GAGAA repeats (GAF31 and Brown I probes); assay type: binding, Drosophila melanogaster
Description: FIG. 3 Binding specificity of P31 and GAGA factor Panel A: DNAse I footprinting experiment with P31 and affinity cleavage with P31E are shown on GAF31 and the Brown I probes. The GAF31 and Brown I probes contains a (AAGAG)2 motif and GAGA factor (GAF) binding site from the Ubx promoter (Biggin et al., 1988). […] The Brown I oligo (a tandem repeat) includes an (AAGAG)s binding site and a degenerate P31 binding site (AACAC)2 as indicated. P31 concentrations used (nM) are indicated. Lanes labeled P31E (top) are affinity cleavage reactions with 1 nM of P31E on either probe. Binding orientations of P31E on these probes are indicated by arrowheads on the brackets pointing towards the N-terminus of the molecule. The letter G refers the G nucleotide cleavage reaction. Panel B: DNAse I footprinting experiment with purified GAGA factor (GAF) on the GAF31 probe. Note that GAF binds both the (AAGAG)2 motif and the binding site from the Ubx promoter.
A polyamide that targets the abundant satellite V composed of GAGAA repeats (Lohe et al., 1993) was synthesized. Designing molecules that would bind to this repeat motif represented a challenge since with current knowledge, targeting of sequences containing 5′-GNG-3′ or 5′-GA-3′ with drugs composed of pyrrole and imidazole is difficult. However, successful targeting to sequences containing 5′-GTG-3′ was previously achieved using an Im-β-Im motif where β-alanine replaces the function of pyrrole (Turner et al., 1998). Since β-alanine, like pyrroles, is degenerate for […] and T^•A base pairs, we designed a compound based on these observations, to recognize a sequence composed of two tandem GAGAA repeats by systematic placement of -alanine at the N-terminal neighbor of imidazole. The binding affinity and specificity of this compound, termed P31 (=Im-β-Im-Py-β-Im-β-Im-β-Dp), were evaluated by DNAse I footprinting. For this purpose, two different probes were examined, both containing GAGAA repeats. […] The apparent binding constant of P31 for this sequence was estimated at 0.25 nM. […]

bw^D/bw^D; Ubx^1/+ flies = assay: P31 fed to developing Ubx^1/+; bw^D flies; assay type: in vivo, Drosophila melanogaster
Description: P31 enhances haltere-to-wing transformation in heterozygous bw^D/bw; Ubx^1/+ flies: The GAGA factor is know to bind to the promoter of Ubx and to stimulate its transcription in vitro (Biggin and Tjian, 1988) The Trl locus also genetically interacts with Ubx, since Trl^13C dominantly enhances the segmental transformation observed in Ubx heterozygotes. […] We asked, does P31 also chemically mimic the genetic interaction of Ubx and Trl^13C? To address this issue, we fed P31 to two genotypes, +/+; Ubx/+ and bw^D/bw^D; Ubx^1/+. The latter genotype was obtained by crossing bw^D/bw^D; st/st females and bw^D/bw^D Ubx^1/Tm3, sb males.
The progeny of these two genotypes raised in the presence of P31 were scored both for the A6 to A5 and the haltere-to-wing transformations as well as for the sex comb reduced phenotypes (Table 3). […] However, eight of them (out of approximately 100) reached a late pupae stage and thus could be dissected to inspect their morphology. […] This transformation was manifested by an enlarged size and gray color of the halteres, and also by the appearance of numerous bristles at the base of the halteres that are characteristic of the anterior wing margin. […] We conclude that the chemical mimicry by P31 in a bw^D genetic backgrounds extends to the genetic interaction of Trl^13C with Ubx.
The lethality of the progenies was calculated by counting the dead bodies and the total empty pupal shells. The A6 to A5 transformation was detected by bristles that form on abdominal segment A6 on males. All male adult flies obtained (˜50) were scored. Sex combs and halteres were individually inspected and photographed under the microscope (Axiophot, Zeiss) after dissecting at least 30 individuals and incubating them into 30 μl of 0.6 g/ml gum arabic; 4 g/ml chlorohydrate; 35% glycerol under a 24×24 mm coverslip as described (Ashburner, 1989). Since raising double heterozygous flies (Ubx^1/+; bw^D/+) led to lethality, we morphologically dissected eight late stage pupae after carefully removing the pupal envelope.

CN(C)CCCNC(=O)CCNC(=O)c1nc(NC(=O)CCNC(=O)c2nc(NC(=O)CCNC(=O)c3cc(NC(=O)c4nc(NC(=O)CCNC(=O)c5nccn5C)cn4C)cn3C)cn2C)cn1C [Compound P31, Im-β-Im-Py-β-Im-β-Im-β-Dp]
concentration at which bw^D repeats are protected ([1]; 2 consecutive bw^D repeats (GAGAAGAGAA)): 0.1 nM | Kd ([1]; DNase I footprinting, read-out: apparent binding constant for two GAGAA repeats): 0.25 nM | affinity for target binding site (in words) ([1]; two GAGAA repeats): subnanomolar affinity | pupae with clear signs of haltere-to-wing transformation (bw^D/bw^D; Ubx^1/+ flies; bw^D/bw^D, Ubx^1/+, dissected late pupae): five of eight | A6 to A5 (bw^D/bw^D; Ubx^1/+ flies; fly stock Ubx^1/+, bw^D): 100% | Lethality (bw^D/bw^D; Ubx^1/+ flies; fly stock Ubx^1/+, bw^D): 100% | Sex comb (mean) (bw^D/bw^D; Ubx^1/+ flies; fly stock Ubx^1/+, bw^D): 7.4 | Sex comb, range of teeth (bw^D/bw^D; Ubx^1/+ flies; fly stock Ubx^1/+, bw^D): 5-9 | A6 to A5, number of bristles on A6 (bw^D/bw^D; Ubx^1/+ flies; fly stock Ubx^1/+, bw^D, dissected late pupae): 2-6 | effect on development (in words) (bw^D/bw^D; Ubx^1/+ flies; in vivo): blocked their development completely
